According to patent US9868727B2, “Factor XIa inhibitors” (Merck Sharp & Dohme Corp., priority 2014, dated 2018):

Experiments:
[1] = biological target: T1, purified Human plasma kallikrein (Homo sapiens, UniProt P03952); test: Kallikrein Assay; type: biochemical; conditions: Plasma Kallekrein IC50; fluorogenic substrate Acetyl-K-P-R-AFC, 0.5 nM enzyme, pH 7.4; read-out: PK IC50
T1 construct: yields a heavy chain (371 amino acids) and a light chain (248 amino acids); purchased Enzyme Research Laboratories
Description: (§1) The effectiveness of a compound of the present invention as an inhibitor of Kallikrein can be determined using a relevant purified serine protease, and an appropriate synthetic substrate. The rate of hydrolysis of the chromogenic or fluorogenic substrate by the relevant serine protease was measured both in the absence and presence of compounds of the present invention. Assays were conducted at room temperature or at 37° C. […] A decrease in the rate of fluorescence change in the presence of inhibitor is indicative of enzyme inhibition. Such methods are known to one skilled in the art. The results of this assay are expressed as the inhibitory constant, K1.
Kallikrein determinations were made in 50 mM HEPES buffer at pH 7.4 containing 150 mM NaCl, 5 mM CaCl2, and 0.1% PEG 8000 (polyethylene glycol; Fisher Scientific). Determinations were made using purified Human plasma kallikrein at a final concentration of 0.5 nM (Enzyme Research Laboratories) and the synthetic substrate, Acetyl-K—P—R-AFC (Sigma # C6608) at a concentration of […].
Times required to achieve equilibration between enzyme and inhibitor were determined in control experiments. The reactions were performed under linear progress curve conditions and fluorescence increase measured at 405 Ex/510 Em nm. […] IC50 was determined by inflection point from a four parameter logistic curve fit. Ki was calculated using the Cheng Prusoff equation, Ki=IC50/(1+([S]/Km)).

[2] = biological target: T2, purified human Factor XIa (Homo sapiens, UniProt P03951); test: Factor XIa Assay; type: biochemical; conditions: fluorogenic substrate Z-Gly-Pro-Arg-AFC 100 μM, 40 pM enzyme, pH 7.4, read-out: F11a IC50
T2 construct: purified human Factor XIa; purchased Sekisui Diagnostics
Description: as §1, with “Coagulation Factor XIa” for “Kallikrein”, “The results of this assay are expressed as the inhibitory constant, K1.” left out
Factor XIa determinations were made in 50 mM HEPES buffer at pH 7.4 containing 150 mM NaCl, 5 mM CaCl2, and 0.1% PEG 8000 (polyethylene glycol; JT Baker or Fisher Scientific). Determinations were made using purified human Factor XIa at a final concentration of 40 pM (Sekisui Diagnostics) and he synthetic substrate, Z-Gly-Pro-Arg-AFC, TFA salt (Sigma #C0980) at a concentration of 100 μM.
Activity assays were performed by diluting a stock solution of substrate at least tenfold to a final concentration ≦0.1 Km into a solution containing enzyme or enzyme equilibrated with inhibitor. Times required to achieve equilibration between enzyme and inhibitor were determined in control experiments. Initial velocities of product formation in the absence (VO) or presence of inhibitor (Vi) were measured. Assuming competitive inhibition, and that unity is negligible compared Km/[S], [I]/e, and [I]/e (where [S], [I], and e respectively represent the total concentrations, of substrate, inhibitor and enzyme), the equilibrium constant (Ki) for dissociation of the inhibitor from the enzyme can be obtained from the dependence of VO/Vi on [I] shown in the following equation.

T1 sequence (P03952 391-638 limits assumed): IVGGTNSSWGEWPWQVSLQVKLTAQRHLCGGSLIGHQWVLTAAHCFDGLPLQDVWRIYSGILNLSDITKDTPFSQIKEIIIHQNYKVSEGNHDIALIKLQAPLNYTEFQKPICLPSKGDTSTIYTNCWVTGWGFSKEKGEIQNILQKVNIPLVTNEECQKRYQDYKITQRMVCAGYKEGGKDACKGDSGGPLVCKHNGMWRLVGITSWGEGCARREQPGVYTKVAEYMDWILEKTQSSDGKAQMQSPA
T1 sequence (P03952 20-390 partner limits assumed): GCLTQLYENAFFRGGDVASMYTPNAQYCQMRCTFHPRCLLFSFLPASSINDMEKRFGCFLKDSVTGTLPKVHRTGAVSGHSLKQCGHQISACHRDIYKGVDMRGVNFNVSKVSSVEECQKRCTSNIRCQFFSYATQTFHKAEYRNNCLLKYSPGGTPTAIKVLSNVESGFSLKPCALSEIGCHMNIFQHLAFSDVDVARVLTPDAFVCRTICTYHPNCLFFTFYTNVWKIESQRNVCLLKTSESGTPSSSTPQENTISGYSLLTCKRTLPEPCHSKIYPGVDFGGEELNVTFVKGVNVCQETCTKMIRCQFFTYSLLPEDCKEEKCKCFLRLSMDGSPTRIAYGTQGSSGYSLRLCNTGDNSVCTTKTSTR
T2 sequence (P03951 388-625 limits assumed): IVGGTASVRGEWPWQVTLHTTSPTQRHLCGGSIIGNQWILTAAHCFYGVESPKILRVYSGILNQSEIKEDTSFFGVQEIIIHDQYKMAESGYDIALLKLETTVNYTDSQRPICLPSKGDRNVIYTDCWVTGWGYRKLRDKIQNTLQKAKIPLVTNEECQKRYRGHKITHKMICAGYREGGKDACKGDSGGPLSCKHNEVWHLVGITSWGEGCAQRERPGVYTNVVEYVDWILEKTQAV
T2 sequence (P03951 19-387 partner limits assumed): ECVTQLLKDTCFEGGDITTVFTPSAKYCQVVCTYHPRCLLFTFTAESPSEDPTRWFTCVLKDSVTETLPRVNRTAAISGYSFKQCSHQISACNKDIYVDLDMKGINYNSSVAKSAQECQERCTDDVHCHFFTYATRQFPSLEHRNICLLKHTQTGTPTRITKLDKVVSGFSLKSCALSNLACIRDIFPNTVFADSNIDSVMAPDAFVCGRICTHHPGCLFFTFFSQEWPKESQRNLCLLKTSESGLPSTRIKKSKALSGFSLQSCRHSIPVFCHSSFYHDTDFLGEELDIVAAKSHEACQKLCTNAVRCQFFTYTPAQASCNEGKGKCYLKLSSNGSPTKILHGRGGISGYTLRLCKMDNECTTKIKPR

Compound	IC50 [1] [nM]	IC50 [2] [nM]
COC(=O)Nc1ccc(-c2c[nH]c(C(Cc3ccc(F)cc3)c3ccc(-c4c(C(F)F)ccc(Cl)c4F)c[n+]3[O-])n2)cc1 (racemic) [Example 13, 5-(3-Chloro-6-(difluoromethyl)-2-fluorophenyl)-2-(2-(4-fluorophenyl)-1-(4-(4-((methoxycarbonyl)amino)phenyl)-1H-imidazol-2-yl)ethyl)pyridine 1-oxide]	10.3	11.3
COC(=O)Nc1ccc(-c2cnc(C(CC3CC3)c3ccc(-c4cc(Cl)ccc4-n4cc(Cl)nn4)c[n+]3[O-])[nH]2)cc1 (racemic) [Example 67]	208	6.51
COC(=O)Nc1ccc(-c2cnc(C(CC3CC3)c3ccc(-c4cc(Cl)ccc4-c4csnn4)c[n+]3[O-])[nH]2)cc1 (racemic) [Example 72]	2610	51.5
COC(=O)Nc1ccc(-c2nnc(C(Cc3ccccc3)c3ccc(-c4cc(Cl)ccc4-n4cnnn4)c[n+]3[O-])o2)cc1 (racemic) [Example 83, 5-(5-chloro-2-(1H-tetrazol-1-yl)phenyl)-2-(1-(5-(4-((methoxycarbonyl)amino)phenyl)-1,3,4-oxadiazol-2-yl)-2-phenylethyl)pyridine 1-oxide]	68	1.2
[O-][n+]1cc(-c2cc(Cl)ccc2-n2cnnn2)ccc1C(Cc1ccccc1)c1nc(-c2cccc(F)c2)c[nH]1 (single isomer, unassigned) [Example 3]	27.6	2.87
[O-][n+]1cc(-c2cc(Cl)ccc2-n2cnnn2)ccc1C(Cc1ccccc1)c1nc(-c2cccc(F)c2)c[nH]1 (single isomer, unassigned) [Example 4]	624	38.9
COC(=O)Nc1ccc(-c2c[nH]c(C(Cc3ccccc3)c3ccc(-c4c(F)ccc(Cl)c4F)c[n+]3[O-])n2)cc1 (single isomer, unassigned) [Example 5]	137	42.2
O=C(O)c1ccc(-c2cnc(C(Cc3ccccc3)c3ccc(-c4cc(Cl)ccc4-n4cnnn4)c[n+]3[O-])[nH]2)cc1 (single isomer, unassigned) [Example 7]	469	10.2
O=C(O)c1ccc(-c2cnc(C(Cc3ccccc3)c3ccc(-c4cc(Cl)ccc4-n4cnnn4)c[n+]3[O-])[nH]2)cc1 (single isomer, unassigned) [Example 8]	26	0.67
O=C(O)c1scc(-c2c[nH]c(C(Cc3ccccc3)c3ccc(-c4cc(Cl)ccc4-n4cnnn4)c[n+]3[O-])n2)c1F (single isomer, unassigned) [Example 9]	0.94	0.19
O=C(O)c1scc(-c2c[nH]c(C(Cc3ccccc3)c3ccc(-c4cc(Cl)ccc4-n4cnnn4)c[n+]3[O-])n2)c1F (single isomer, unassigned) [Example 10]	117	10.1
COC(=O)Nc1ccc(-c2c[nH]c(C(Cc3ccc(F)cc3)c3ccc(-c4cc(Cl)ccc4C(F)F)c[n+]3[O-])n2)cc1 (single isomer, unassigned) [Example 11, 5-(5-chloro-2-(difluoromethyl)phenyl)-2-(2-(4-fluorophenyl)-1-(4-(4-((methoxycarbonyl)amino)phenyl)-1H-imidazol-2-yl)ethyl)pyridine 1-oxide]	10.1	1.86
[O-][n+]1cc(-c2cc(Cl)ccc2-n2cnnn2)ccc1C(Cc1ccc(F)cc1)c1nc(-c2ccc(F)cc2)c[nH]1 (single isomer, unassigned) [Example 16]	0.78	3.82
[O-][n+]1cc(-c2cc(Cl)ccc2-n2cnnn2)ccc1C(Cc1ccc(F)cc1)c1nc(-c2ccc(F)cc2)c[nH]1 (single isomer, unassigned) [Example 17]	404	14.8
N#Cc1ccc(-c2c[nH]c(C(Cc3ccc(F)cc3)c3ccc(-c4cc(Cl)ccc4-n4cnnn4)c[n+]3[O-])n2)cc1 (single isomer, unassigned) [Example 20]	28.8	1.54
[O-][n+]1cc(-c2cc(Cl)ccc2-n2cnnn2)ccc1C(Cc1ccc(F)cc1)c1nc(-c2ccc(Cl)cc2)c[nH]1 (single isomer, unassigned) [Example 22]	193	6.52
N#Cc1ccc(-c2cnc(C(CC3CC3)c3ccc(-c4cc(Cl)ccc4-n4cnnn4)c[n+]3[O-])[nH]2)cc1 (single isomer, unassigned) [Example 29, 4-[2-(1-{5-[5-chloro-2-(1H-tetrazol-1-yl)phenyl]-1-oxidopyridin-2-yl}-2-cyclopropylethyl)-1H-imidazol-5-yl]benzonitrile]	226	2.85
[O-][n+]1cc(-c2cc(Cl)ccc2-n2cnnn2)ccc1C(CC1CC1)c1ncc(-c2cccc(F)c2)[nH]1 (single isomer, unassigned) [Example 32]	428	14.7
COC(=O)Nc1ccc(-c2cnc(C(CC3CC3)c3ccc(-c4cc(Cl)ccc4-n4cnnn4)c[n+]3[O-])[nH]2)c(C)c1 (single isomer, unassigned) [Example 33]	625	19
COC(=O)Nc1ccc(-c2cnc(C(CC3CC3)c3ccc(-c4cc(Cl)ccc4-n4cnnn4)c[n+]3[O-])[nH]2)c(C)c1 (single isomer, unassigned) [Example 34]	31.3	0.24
N#Cc1cccc(-c2cnc(C(CC3CC3)c3ccc(-c4cc(Cl)ccc4-n4cnnn4)c[n+]3[O-])[nH]2)c1 (single isomer, unassigned) [Example 36]	377	27.4
COC(=O)Nc1ccc(-c2cnc(C(CC3CC3)c3ccc(-c4cc(Cl)ccc4-n4cnnn4)c[n+]3[O-])[nH]2)c(F)c1 (single isomer, unassigned) [Example 38]	38.5	0.48
COC(=O)Nc1ccc(-c2cnc(C(CC3CC3)c3ccc(-c4cc(Cl)ccc4-n4cnnn4)c[n+]3[O-])[nH]2)cc1F (single isomer, unassigned) [Example 40]	39	1.52
COC(=O)Nc1ccc(-c2cnc(C(CC3CC3)c3ccc(-c4cc(Cl)ccc4-n4cnnn4)c[n+]3[O-])[nH]2)c(Cl)c1 (single isomer, unassigned) [Example 41]	399	23.7
COC(=O)Nc1ccc(-c2cnc(C(CC3CC3)c3ccc(-c4cc(Cl)ccc4-n4cnnn4)c[n+]3[O-])[nH]2)c(Cl)c1 (single isomer, unassigned) [Example 42]	28.1	0.58
COC(=O)Nc1ccc(-c2cnc(C(CC3(C)CC3)c3ccc(-c4cc(Cl)ccc4-n4cnnn4)c[n+]3[O-])[nH]2)cc1 (single isomer, unassigned) [Example 43]	887	48.2
COC(=O)Nc1ccc(-c2cnc(C(CC3(C)CC3)c3ccc(-c4cc(Cl)ccc4-n4cnnn4)c[n+]3[O-])[nH]2)cc1 (single isomer, unassigned) [Example 44]	14.7	1.52
COC(=O)Nc1ccc(-c2c[nH]c(C(CC3CC3)c3ccc(-c4c(-n5cnnn5)ccc(Cl)c4F)c[n+]3[O-])n2)cc1 (single isomer, unassigned) [Example 63, 5-(3-chloro-2-fluoro-6-(1H-tetrazol-1-yl)phenyl)-2-(2-cyclopropyl-1-(4-(4-((methoxycarbonyl)amino)phenyl)-1H-imidazol-2-yl)ethyl)pyridine 1-oxide]	231	
COC(=O)Nc1ccc(-c2c[nH]c(C(CC3CC3)c3ccc(-c4c(-n5cnnn5)ccc(Cl)c4F)c[n+]3[O-])n2)cc1 (single isomer, unassigned) [Example 64, 5-(3-chloro-2-fluoro-6-(1H-tetrazol-1-yl)phenyl)-2-(2-cyclopropyl-1-(4-(4-((methoxycarbonyl)amino)phenyl)-1H-imidazol-2-yl)ethyl)pyridine 1-oxide]	5.6	
